{"source": "paper PMC10889159", "about": "“Synthesis and Antitumor Activity Evaluation of Novel Echinatin Derivatives with a 1,3,4-Oxadiazole Moiety” (International Journal of Molecular Sciences, 2024)", "key": {"[1]": {"test_system": "K562", "assay": "CCK8 antiproliferative assay, K562", "assay_type": "cell-based", "details": "Homo sapiens, CCK8, 48 h, mean ± SD, n = 3", "method": "(§1) For all biological assays, all of the synthesized compounds were dissolved in DMSO. The cytotoxicity of all of the target compounds against the HCT116, K562, KU812, and HT-29 cells was determined by an CCK8 assay in vitro using adriamycin and echinatin as the controls. About 3000 cells per well were seeded in a 96-well plate and incubated for 24 h. Then, the cells were stimulated with different concentrations of test compounds for 48 h. The CCK8 solution (100 µL 0.5 mg/mL^−1) was added to each well, and the cells were incubated for another 4 h. Then, the absorbance of the samples was measured at 450 nm. The IC50 values were calculated according to the Logit method after obtaining the inhibitory rate. All experiments were repeated three times."}, "[2]": {"test_system": "KU812", "assay": "CCK8 antiproliferative assay, KU812", "assay_type": "cell-based", "details": "Homo sapiens, CCK8, 48 h, mean ± SD, n = 3", "method": "as §1"}, "[3]": {"test_system": "HT-29", "assay": "CCK8 antiproliferative assay, HT-29", "assay_type": "cell-based", "details": "Homo sapiens, CCK8, 48 h, mean ± SD, n = 3", "method": "as §1"}, "[4]": {"test_system": "HCT116", "assay": "CCK8 antiproliferative assay, HCT116", "assay_type": "cell-based", "details": "Homo sapiens, HCT-116; CCK8, 48 h, mean ± SD, n = 3", "method": "as §1"}, "[5]": {"test_system": "CCC-HIE-2", "assay": "Cytotoxicity toward CCC-HIE-2 cells", "assay_type": "cell-based, human"}, "[6]": {"molecular_target": "c-KIT (Homo sapiens, UniProt P10721)", "sequence (P10721 26-976)": "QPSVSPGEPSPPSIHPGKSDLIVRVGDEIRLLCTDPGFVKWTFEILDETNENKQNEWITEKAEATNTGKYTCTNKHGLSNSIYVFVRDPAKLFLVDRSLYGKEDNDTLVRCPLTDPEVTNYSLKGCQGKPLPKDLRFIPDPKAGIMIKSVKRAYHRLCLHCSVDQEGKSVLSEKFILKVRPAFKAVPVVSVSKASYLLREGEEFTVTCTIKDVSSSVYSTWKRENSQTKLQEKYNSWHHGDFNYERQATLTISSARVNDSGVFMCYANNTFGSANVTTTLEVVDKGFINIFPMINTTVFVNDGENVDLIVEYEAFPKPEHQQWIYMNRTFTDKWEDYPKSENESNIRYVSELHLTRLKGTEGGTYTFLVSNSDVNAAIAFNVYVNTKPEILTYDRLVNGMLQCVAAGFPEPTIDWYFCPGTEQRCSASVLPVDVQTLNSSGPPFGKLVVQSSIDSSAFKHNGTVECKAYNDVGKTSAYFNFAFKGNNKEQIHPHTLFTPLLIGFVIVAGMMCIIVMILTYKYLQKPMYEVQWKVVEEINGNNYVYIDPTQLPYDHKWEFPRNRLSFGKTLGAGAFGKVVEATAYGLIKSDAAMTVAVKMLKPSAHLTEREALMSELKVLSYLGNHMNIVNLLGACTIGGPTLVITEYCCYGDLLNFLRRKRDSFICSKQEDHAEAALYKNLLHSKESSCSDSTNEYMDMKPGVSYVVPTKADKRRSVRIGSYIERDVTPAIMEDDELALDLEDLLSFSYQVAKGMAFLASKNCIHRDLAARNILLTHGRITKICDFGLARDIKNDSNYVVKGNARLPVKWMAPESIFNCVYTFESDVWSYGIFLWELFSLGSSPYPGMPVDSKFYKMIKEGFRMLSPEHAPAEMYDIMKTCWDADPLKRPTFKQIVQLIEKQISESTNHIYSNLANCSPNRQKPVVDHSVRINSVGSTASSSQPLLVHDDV", "assay": "Biochemical c-KIT activity assay (ADP-Glo)", "details": "20 μM ATP, read-out: IC50 for c-KIT inhibition", "method": "The enzymatic activities of c-KIT were determined by in vitro kinase assays using the ADP-Glo reagent (Promega, Madison, WI, USA) according to the manufacturer’s instructions. Briefly, 250 ng of c-KIT protein was incubated with compounds in 10 μL of reaction buffer (40 mM Tris−HCl, pH 7.4, 2 mM MnCl2, 2 mM DTT, 20 mM MgCl2, 0.1 mg/mL bovine serum albumin, 1 mM Na3VO4) containing 20 μΜ ATP and 40 μM poly (Glu4-Tyr1) as substrates at 30 °C for 150 min. The ADP-Glo reagent was then added, and the mixture was incubated at 25 °C for 40 min. The kinase detection reagent was added for another 30 min at 25 °C. The converted ADP was determined by luminescence measurement using a Wallac Vector 1420 multilabel counter (PerkinElmer)."}, "[7]": {"test_system": "four cancer cell lines (K562, KU812, HT-29, HCT116)", "assay": "CCK8 antiproliferative assay, summary over the four cancer cell lines", "assay_type": "cell-based", "details": "Homo sapiens; range over K562, KU812, HT-29, HCT116; read-out: IC50 against the four cancer cell lines", "method": "as §1"}, "[8]": {"test_system": "HCT116 cells", "assay": "Intracellular ROS generation (DCFH-DA, flow cytometry)", "assay_type": "cell-based, human", "details": "escalating concentrations", "method": "Approximately 4 × 10^5 cells per well were seeded in a 6-well plate and incubated for 12 h, then the discarded medium was replaced with fresh medium containing different concentrations of Compound T4 (0 μM, 0.625 μM, 1.25 μM, 2.5 μM, and 5 μM) for 48 h. ROS production was detected by using the peroxide-sensitive fluorescent probe DCFH-DA. After treatment with different concentrations of T4, the cells were incubated with 10 µg/mL DCFH-DA at 37 °C for 20 min. Then, the cells were harvested. Samples were analyzed by flow cytometry (FACS Calibur, Becton-Dickinson, East Rutherford, NJ, USA)."}, "[9]": {"test_system": "HCT116 cells", "assay": "Cell cycle analysis (PI staining, flow cytometry)", "assay_type": "cell-based, human", "method": "The effects of Compound T4 on cell cycle progression were verified by using a standard (PI) staining procedure followed by flow cytometry analysis. HCT116 cells were seeded in 6-well plates and incubated for 24 h until the cells adhered. […] Control cells and treated cells were washed twice with PBS, centrifuged (1000 rpm, 5 min), and collected at a final concentration of 50,000 cells. Then, a single cell suspension was fixed in ice-cold 70% (v/v) ethanol overnight at 4 °C. The cells were washed again with PBS. A total of 100 μL RNase A was added and the cells were incubated at 37 °C for 30 min. The cell DNA was stained with 400 μL PI for 30 min. Data collection and analysis were carried out using a flow cytometer (Beckman Coulter cytoFLEX, USA)."}, "[10]": {"test_system": "HCT116 cells", "assay": "Western blot of c-KIT downstream proteins and caspase-3", "assay_type": "cell-based, human", "details": "48 h", "method": "HCT116 cells were seeded at a density of 4 × 10^5 cells per well and treated with various concentrations of Compound T4 (0, 1.25, 2.5, and 5 µM) for 48 h. After this, cells were collected and washed twice with ice-cold DPBS. The pellets were resuspended in a total protein extraction buffer (20 mM HEPES, 350 mM NaCl, 20% glycerol, 1% NP-40, 1 mM MgCl2, 0.5 mM EDTA, 0.1 mM EGTA, 0.1 mM DTT, 0.1 mM PMSF) containing a protease inhibitor cocktail and incubated on ice for 30 min with intermittent mixing. The protein concentration was measured using the Bradford reagent (Bio-Rad Laboratories Inc., Hercules, CA, USA). An equal amount (20 µg) of protein was loaded on 10% poly acrylamide gels and transferred to a nitrocellulose membrane. After blocking with 5% skimmed milk, the membrane was incubated at 4 °C overnight with specific primary antibodies. The membrane was washed and incubated at room temperature for 1 h with secondary antibodies conjugated with horseradish peroxidase (HRP). Finally, the immunoblot was developed for visualization using a chemiluminescence kit. Primary antibodies for Cleaved-caspase 3, MEK, p-MEK, Erk1/2, p-Erk1/2, mTOR, Akt, p-Akt, and GAPDH and all secondary antibodies were obtained from Santa Cruz Biotechnology (Santa Cruz, CA, USA)."}, "[11]": {"test_system": "HCT116 cells", "assay": "Cell colony formation assay", "assay_type": "cell-based, human", "details": "1.25, 2.5, 5 µM, 14 d", "method": "To investigate the effects of echinatin derivatives on the clonogenic potential of HCT116 cells, the colony formation assay was performed as previously described. HCT116 cells were seeded into 6-well plates at 37 °C with 5% CO2 for 24 h and then treated with Compound T4 and echinatin at various concentrations (0 µM, 1.25 µM, 2.5 µM, and 5 µM) for 14 d. Then, cells were stained with crystal violet solution and clone numbers were counted directly with the naked eye."}, "[12]": {"test_system": "HCT116 cells", "assay": "Wound healing assay", "assay_type": "cell-based, human", "details": "24 h, serum-free medium", "method": "Five lines were drawn evenly on the back of the 6-well plate and transferred HCT116 cells (1 × 10^6/well) in a 6-well plate until a uniform monolayer of cells formed at the bottom of the 6-well plate. Then, we drew lines on the cells using a 200 μL pipette tip. We then carefully washed the damaged cell monolayer with PBS, then treated with different concentrations of Compound T4, and incubated in serum-free medium for 24 h. We then used an inverted microscope to take photos of the 6-hole plate at the 0 and 24 h time points and used ImageJ for processing and analysis."}, "[13]": {"test_system": "HCT116 cells", "assay": "TUNEL staining", "assay_type": "cell-based, human", "details": "varying concentrations", "method": "The slides were immersed in 4% paraformaldehyde (pH 7.4) for 25 min at room temperature and then washed with PBS 3 times. The cells were immersed in 0.1% Triton X-100 solution prepared with PBS for 10 min (operation on ice) and then washed twice with PBS. Dilute 5× equilibration buffer with deionized water and 100 µL 1× equilibration buffer were added to each climbing tablet to cover the sample area to be tested, then incubated at room temperature for 15 min. […] The slides were placed in a wet box and incubated at 37 °C for 60 min. The wet box was wrapped with aluminum foil to avoid light. These were then washed three times with PBS with DAPI dripped and incubated in the dark for 5 min. The nucleus of the specimen was stained. Water-absorbent paper was used to absorb the liquid on the climbing sheet, then a sealing liquid containing an anti-fluorescence quenching agent was used to seal the film before the images were observed and collected under a fluorescence microscope."}}}
{"compound": "COc1cc(O)ccc1/C=C/C(=O)c1ccc(OCc2nnc(Nc3ccc(C(F)(F)F)cc3)o2)cc1", "note": "[Compound T4, (E)-3-(4-Hydroxy-2-methoxyphenyl)-1-{4-{{5-{[4-(trifluoromethyl)phenyl]amino}-1,3,4-oxadiazol-2-yl}methoxy}phenyl}propenone]", "values": [{"measurement": "IC50", "setting": "[1]", "result": "8.6 ± 0.61", "unit": "µM"}, {"measurement": "IC50", "setting": "[2]", "result": "8.09 ± 0.91", "unit": "µM"}, {"measurement": "IC50", "setting": "[3]", "result": "2.87 ± 0.32", "unit": "µM"}, {"measurement": "IC50", "setting": "[4]", "result": "1.71 ± 0.46", "unit": "µM"}, {"measurement": "growth of CCC-HIE-2 cells", "setting": "[5]", "result": "not significantly influenced"}, {"measurement": "SI (selectivity index)", "setting": "[5]; CCC-HIE-2 vs HCT116", "result": 16.1}, {"measurement": "IC50", "setting": "[5]; human embryonic intestinal mucosal derived cell line", "result": "27.6 ± 1.37", "unit": "µM"}, {"measurement": "IC50", "setting": "[6]", "result": 0.178, "unit": "µM"}, {"measurement": "IC50", "setting": "[7]", "result": "1.71 to 8.6", "unit": "µM"}, {"measurement": "generation and accumulation of ROS", "setting": "[8]", "result": "concentration-dependent generation and accumulation of ROS"}, {"measurement": "distribution of cell cycle phase (%): S", "setting": "[9]; 5 μM, 48 h (control 28.0%)", "result": 16.8, "unit": "%"}, {"measurement": "distribution of cell cycle phase (%): G0/G1", "setting": "[9]; 5 μM, 48 h (control 54.7%)", "result": 65.1, "unit": "%"}, {"measurement": "cell cycle arrest", "setting": "[9]; various concentrations, 48 h", "result": "blocked the cell cycle in the G0/G1 phase"}, {"measurement": "expression of the phosphorylated forms of Akt, MEK, Erk1/2, and mTOR", "setting": "[10]; 1.25, 2.5, 5 μM", "result": "significantly downregulated"}, {"measurement": "protein expression levels of Akt, MEK, and Erk1/2", "setting": "[10]; 1.25, 2.5, 5 μM", "result": "not significantly altered"}, {"measurement": "expression of caspase-3, as a percentage of GAPDH", "setting": "[10]; upregulated from 24% following T4 treatment (0-5 μM)", "result": 49, "unit": "%"}, {"measurement": "cell colony number", "setting": "[11]", "result": "decreased in a dose-dependent manner"}, {"measurement": "HCT116 cell migration", "setting": "[12]", "result": "strongly inhibited"}, {"measurement": "apoptotic cells (TUNEL red fluorescence)", "setting": "[13]", "result": "increase in apoptotic cells"}, {"measurement": "melting point", "result": "180.5 to 181.4", "unit": "°C"}]}
